The results in this text go back to PMC12096834, “Antimicrobial peptide plectasin recombinantly produced in Escherichia coli disintegrates cell walls of gram-positive bacteria, as proven by transmission electron and atomic force microscopy” (Journal of Bacteriology, 2025).

As usually defined, the MIC is the lowest concentration found to suppress growth. Higher therefore signals a need for much substance.

Common to all, as to assay: Antimicrobial activity assay (broth microdilution MIC)
What all share (assay type): cell-based

In assay [1] the test system is Streptococcus pneumoniae DSM 24048 (ATCC 49619). Particulars: 18 hours. From the text: (§1) The test panel included four gram-positive and four gram-negative bacterial strains, which were selected based on EUCAST recommendations and are commonly used in quality control for pathogen testing. Specifically, the test panel comprised the following four gram-positive strains: Staphylococcus aureus DSM 2569 (ATCC 29213), Streptococcus pneumoniae DSM 24048 (ATCC 49619), Listeria monocytogenes DSM 20600 (ATCC 15313), and Enterococcus faecalis DSM 2570 (ATCC 29212). The gram-negative strains included the following: Pseudomonas aeruginosa DSM 1117 (ATCC 27853), Escherichia coli DSM 1103 (ATCC 25922), Escherichia coli BL21(DE3) DSM 102052 (ATCC BAA-1025-B2), and Escherichia coli HMS174 DSM 5932 (ATCC 47011). These strains were obtained from the German Collection of Microorganisms and Cell Cultures GmbH (DSMZ, Leibnitz Institute, Braunschweig, Germany). The strains were maintained in cryo-stocks containing 20% glycerol at a temperature of −80°C. When needed, all gram-negative strains were streaked on MH-agar (Oxoid, Hampshire, UK) and all gram-positive strains on TSYE-agar, with the exception of the Listeria monocytogenes strain, for which BHI-agar was used. All strains were incubated overnight at 35°C.
(§2) The plates were made fresh on the day of the assay by first adding 50 µL of sterile water (for the gram-positive strains) or PBS buffer pH 7.4 (for the gram-negative strains) into the wells of the first to 11th column of a polystyrene 96-well plate (Greiner, 655161, Kremsmünster, Austria). An ampicillin stock solution (6,400 µg/mL) was prepared and diluted in sterile water to obtain a final ampicillin solution of 64 µg/mL. Purified plectasin, 100 µL of ampicillin solution, CASPON-plectasin, and sterile water for the negative control were each dispensed into two wells of the 12th microtiter plate column and diluted twofold from the 11th to the second column by transferring 50 µL per well of the previous column into the next one (in the end, 50 µL of the 2nd was discarded) to obtain the ranges of 0.064–64 µg/mL for ampicillin, 32–32,768 µg/mL for CASPON-plectasin, and 0.5–512 µg/mL (Streptococcus pneumoniae and Staphylococcus aureus), 1–1,024 µg/mL (Enterococcus faecalis and Listeria monocytogenes), or 4–4,096 µg/mL (gram-negative strains) for plectasin.
(§3) Bacterial inocula were prepared by suspending colonies from incubated plates described above with 3 mL 0.85% NaCl solution to obtain a turbidity corresponding to McFarland standard 0.5. The inoculated saline suspensions (1–2 × 10^8 CFU/mL) were diluted 1:100 in double concentrated MH- (all gram-negative strains, Staphylococcus aureus, and […]) or MHF- (Streptococcus pneumoniae, Listeria monocytogenes; MH-broth with 5% lysed horse blood and 20 mg/L ß-NAD) broth to obtain approximately […]. Fifty microliters of the diluted inoculum was added to the wells of the prepared microdilution plate, resulting in the final plectasin (0.25–256 µg/mL, 0.5–512 µg/mL, and 2–2,048 µg/mL), CASPON-plectasin (16–16,384 µg/mL), and ampicillin (0.032–32 µg/mL) concentrations and approximately […]. The wells of the negative control were inoculated with sterile double-concentrated MH- or MH-F broth. A schematic illustration of the plate preparation can be found in the supplementary material (Fig. S1). Plates were incubated in ambient air at 35°C for 18 hours. After incubation, the plates were shaken for 1 minute (1,000 rpm) on a platform shaker (Titramax 101, Heidolph, Schwabach, Germany) until obtaining a homogeneous suspension. The absorbances (625 nm) of each well were measured on a Tecan Spark device (Männedorf, Switzerland) and subtracted by the average absorbance of the negative control. […] The variability of the MIC results was evaluated by testing all strains against each agent in three independent assays. […]

In assay [2] the test system is Listeria monocytogenes DSM 20600 (ATCC 15313). The conditions noted are these: MHF broth, approx 5 × 10^4 CFU/well, 35°C, 18 hours, absorbance 625 nm, three independent assays, plectasin 0.5–512 µg/mL, CASPON-plectasin 16–16,384 µg/mL.
Excerpt: as §1, §2, §3

The subject of assay [3] is Escherichia coli BL21(DE3) DSM 102052 (ATCC BAA-1025-B2).
Excerpt: as §1, §2, §3

Assay [4] relates to Pseudomonas aeruginosa DSM 1117 (ATCC 27853). Particulars: MH broth, 35°C, 18 hours, absorbance 625 nm, three independent tests, plectasin 2–2,048 µg/mL, CASPON-plectasin 16–16,384 µg/mL.
Excerpt: as §1, §2, §3

In assay [5] the test system is Escherichia coli HMS174 DSM 5932 (ATCC 47011). The conditions noted are these: MH broth, 35°C, 18 hours, absorbance 625 nm, three independent tests, plectasin 2–2,048 µg/mL, CASPON-plectasin 16–16,384 µg/mL.
Excerpt: as §1, §2, §3

Assay [6] relates to Staphylococcus aureus DSM 2569 (ATCC 29213). The conditions noted are these: 18 hours.
Excerpt: as §1, §2, §3

The subject of assay [7] is Enterococcus faecalis DSM 2570 (ATCC 29212). The conditions noted are these: MH broth, approx 5 × 10^4 CFU/well, 35°C, 18 hours, absorbance 625 nm, three independent assays, plectasin 0.5–512 µg/mL, CASPON-plectasin 16–16,384 µg/mL.
Excerpt: as §1, §2, §3

Assay [8] concerns Escherichia coli DSM 1103 (ATCC 25922). Particulars: MH broth, 35°C, 18 hours, absorbance 625 nm, three independent tests, plectasin 2–2,048 µg/mL, CASPON-plectasin 16–16,384 µg/mL.
Excerpt: as §1, §2, §3

Where [9] appears, read: microdilution, extinction at 625 nm, Fig. 3.

Each structure is given as a SMILES string. ≈ marks a conversion by molar mass, not a printed value.

Take `CC[C@H](C)[C@@H]1NC(=O)[C@H](CO)NC(=O)[C@H](CCCCN)NC(=O)[C@@H]2CSSC[C@@H](C(=O)N[C@@H](Cc3ccc(O)cc3)C(=O)O)NC(=O)[C@H](CCCCN)NC(=O)[C@@H]3CSSC[C@H](NC(=O)[C@H](CCC(N)=O)NC(=O)[C@H](CCSC)NC(=O)[C@H](CC(=O)O)NC(=O)[C@H](CC(=O)O)NC(=O)[C@H](CCC(=O)O)NC(=O)[C@H](CC(=O)O)NC(=O)[C@H](Cc4c[nH]c5ccccc45)NC(=O)[C@@H]4CCCN4C(=O)CNC(=O)[C@H](CC(N)=O)NC(=O)[C@@H](NC(=O)CNC(=O)[C@H](Cc4ccccc4)NC(=O)CN)CSSC[C@H](NC(=O)[C@H](Cc4ccc(O)cc4)NC(=O)CNC(=O)CNC(=O)[C@H](CCCCN)NC(=O)[C@H](Cc4ccc(O)cc4)NC(=O)CNC(=O)[C@H](CCCCN)NC1=O)C(=O)N[C@@H](C)C(=O)N[C@@H](CCCCN)C(=O)NCC(=O)NCC(=O)N[C@@H](Cc1ccccc1)C(=O)N[C@@H](C(C)C)C(=O)N3)C(=O)N[C@@H](Cc1c[nH]cn1)C(=O)N[C@@H](CC(N)=O)C(=O)N[C@@H](Cc1c[nH]cn1)C(=O)N2` [Plectasin, plectasin]: the MIC in assay [1] (broth microdilution, MHF broth (5% lysed horse blood, 20 mg/L ß-NAD), approx 5 × 10^4 CFU/well, 35°C, absorbance 625 nm, three independent assays, plectasin 0.25–256 µg/mL, CASPON-plectasin 16–16,384 µg/mL) worked out at 4 µg/mL (≈ 0.909 µM); in assay [2] it was 32 µg/mL (≈ 7.27 µM); in assay [6] (broth microdilution, MH broth, approx 5 × 10^4 CFU/well, 35°C, absorbance 625 nm, three independent assays, plectasin 0.25–256 µg/mL, CASPON-plectasin 16–16,384 µg/mL), 32 µg/mL (≈ 7.27 µM); in assay [7] it was 128 µg/mL (≈ 29.1 µM). The results for the “plectasin concentration at which a distinct gradient of extinction reduction was observed” value in assay [1] (setting [9]) and in assay [6] (setting [9]) were 0.5 µg/mL and 8 µg/mL, respectively. Besides, the “growth inhibition (no MIC could be determined)” value in assay [3] (broth microdilution, MH broth, 35°C, 18 hours, absorbance 625 nm, three independent tests, plectasin 2–2,048 µg/mL, CASPON-plectasin 16–16,384 µg/mL) is on record as “no growth decline”; in assay [4], “no growth decline”; in assay [5], “no growth decline”; in assay [8], “no growth decline”. In addition, in assay [3] (increased number and altered morphology of cells (Fig. S11)), the “extinction value at 625 nm (growth) at the highest plectasin concentration” value was “four times higher”.
